Data: patent publication US10434083B2, “Transmammary delivery of cyclooxygenase-2 inhibitors for analgesia in neonates” (Iowa State University Research Foundation, Inc., priority 2018, dated 2019)

Columns and labels:
[1] = Necropsy and histopathology examination of nursing piglets at 21 d; assay type: in vivo, swine; settings: for Kidney: Mild tubular ectasia (number of piglets) / Kidney: Moderate ectasia (number of piglets) / Kidney: Prominent ectasia (number of piglets) / Kidney: Rare tubular ectasia (number of piglets) / Kidney: Within normal limits (number of piglets) / Liver: Within normal limits (number of piglets) / Small Intestine: Within normal limits (number of piglets) / Stomach: Mild gastritis (number of piglets) / Stomach: Mild vasculitis, muscle layer (number of piglets) / Stomach: Within normal limits (number of piglets): nursing piglets, 21 d
Description: (§1) Thereafter, sows and piglets in all groups were humanely euthanized and examined for macroscopic signs of NSAID toxicity. Necropsies were performed on all animals to inspect for macroscopic signs of NSAID toxicity. Samples of kidney, liver, small intestine and stomach were sectioned into 0.5-1 cm slices and placed in plastic jars containing 10% buffered formalin in a 10:1 formalin:tissue ratio for histopathology examination.
(§2) Formalin-fixed sections of kidney, liver, small intestine and stomach from sows and 3 piglets/litter were trimmed and positioned in cassettes loaded into an automated tissue processor (Sakura VIP 5, Sakura Finetek, Torrance, Calif.) for overnight paraffin infiltration. Processed tissues in cassettes were then placed in a paraffin bath (Sakura Tissue-Tek TEC 5, Sakura Finetek, Torrance, Calif.) after which they were removed from the cassette and oriented in molds. […] Tissue sections were cut at 4 microns from the cooled blocks. Paraffin ribbons with tissue were then laid out on a water bath and the floating tissue sections were collected onto microscope slides. The unstained tissue sections were then mounted on the slide and dried at 60° C. for 20 minutes. Finally, the tissue was deparaffinized and rehydrated for staining by transfer through xylene and a series of decreasing concentrations of alcohol to hematoxylin on an automated stainer (Sakura Tissue-Tek Prisma, Sakura Finetek, Torrance, Calif.). After a tap water rinse, the tissue on the slide was counterstained with eosin, dehydrated in an alcohol series, cleared in xylene and cover slipped (Sakura Tissue-Tek Glas g2) prior to histological examination by a veterinary diagnostician with experience in the histological examination of swine tissues.

[2] = Necropsy and histopathology examination of lactating sows at 21 d; settings: for Kidney: Focal interstitial nephritis (number of sows) / Kidney: Mild tubular ectasia (number of sows) / Kidney: Within normal limits (number of sows) / Liver: Within normal limits (number of sows) / Small Intestine: Within normal limits (number of sows) / Stomach: Within normal limits (number of sows): 21 d
Description: as §1, §2

CC1(C)OC(=O)C(OCC2CC2)=C1c1ccc(S(C)(=O)=O)cc1 [firocoxib]
6: Stomach: Mild gastritis (number of piglets) ([1]; sow dose 1.0 mg/kg IM) | Stomach: Mild gastritis (number of piglets) ([1]; sow dose 1.5 mg/kg IM)
12: Liver: Within normal limits (number of piglets) ([1]; sow dose 0.5 mg/kg IM) | Small Intestine: Within normal limits (number of piglets) ([1]; sow dose 0.5 mg/kg IM) | Liver: Within normal limits (number of piglets) ([1]; sow dose 1.0 mg/kg IM) | Small Intestine: Within normal limits (number of piglets) ([1]; sow dose 1.0 mg/kg IM) | Liver: Within normal limits (number of piglets) ([1]; sow dose 1.5 mg/kg IM) | Small Intestine: Within normal limits (number of piglets) ([1]; sow dose 1.5 mg/kg IM) | Liver: Within normal limits (number of piglets) ([1]; sow dose 2.0 mg/kg IM) | Small Intestine: Within normal limits (number of piglets) ([1]; sow dose 2.0 mg/kg IM)
4: Stomach: Within normal limits (number of piglets) ([1]; sow dose 1.0 mg/kg IM) | Liver: Within normal limits (number of sows) ([2]; sows, 0.5 mg/kg IM) | Small Intestine: Within normal limits (number of sows) ([2]; sows, 0.5 mg/kg IM) | Stomach: Within normal limits (number of sows) ([2]; sows, 0.5 mg/kg IM) | Liver: Within normal limits (number of sows) ([2]; sows, 1.0 mg/kg IM) | Small Intestine: Within normal limits (number of sows) ([2]; sows, 1.0 mg/kg IM) | Stomach: Within normal limits (number of sows) ([2]; sows, 1.0 mg/kg IM) | Liver: Within normal limits (number of sows) ([2]; sows, 1.5 mg/kg IM) | Small Intestine: Within normal limits (number of sows) ([2]; sows, 1.5 mg/kg IM) | Stomach: Within normal limits (number of sows) ([2]; sows, 1.5 mg/kg IM) | Liver: Within normal limits (number of sows) ([2]; sows, 2.0 mg/kg IM) | Small Intestine: Within normal limits (number of sows) ([2]; sows, 2.0 mg/kg IM) | Stomach: Within normal limits (number of sows) ([2]; sows, 2.0 mg/kg IM)
1: Kidney: Rare tubular ectasia (number of piglets) ([1]; sow dose 0.5 mg/kg IM) | Kidney: Within normal limits (number of piglets) ([1]; sow dose 0.5 mg/kg IM) | Kidney: Rare tubular ectasia (number of piglets) ([1]; sow dose 1.0 mg/kg IM) | Kidney: Moderate ectasia (number of piglets) ([1]; sow dose 2.0 mg/kg IM) | Stomach: Mild vasculitis, muscle layer (number of piglets) ([1]; sow dose 2.0 mg/kg IM) | Kidney: Mild tubular ectasia (number of sows) ([2]; sows, 0.5 mg/kg IM) | Kidney: Within normal limits (number of sows) ([2]; sows, 0.5 mg/kg IM) | Kidney: Focal interstitial nephritis (number of sows) ([2]; sows, 1.0 mg/kg IM) | Kidney: Within normal limits (number of sows) ([2]; sows, 1.0 mg/kg IM) | Kidney: Mild tubular ectasia (number of sows) ([2]; sows, 1.5 mg/kg IM) | Kidney: Mild tubular ectasia (number of sows) ([2]; sows, 2.0 mg/kg IM) | Kidney: Within normal limits (number of sows) ([2]; sows, 2.0 mg/kg IM)
19: sections of stomach lining with mild gastritis (number) ([1]; piglets, all treatment groups)
5: Kidney: Mild tubular ectasia (number of piglets) ([1]; sow dose 0.5 mg/kg IM) | Kidney: Prominent ectasia (number of piglets) ([1]; sow dose 0.5 mg/kg IM) | Stomach: Mild gastritis (number of piglets) ([1]; sow dose 0.5 mg/kg IM) | Stomach: Within normal limits (number of piglets) ([1]; sow dose 0.5 mg/kg IM) | Kidney: Mild tubular ectasia (number of piglets) ([1]; sow dose 2.0 mg/kg IM) | kidneys with ectatic tubules (number) ([2]; sows, all treatment groups)
10: kidneys with ectatic tubules (number) ([1]; piglets, all treatment groups)
0: Kidney: Moderate ectasia (number of piglets) ([1]; sow dose 0.5 mg/kg IM) | Kidney: Moderate ectasia (number of piglets) ([1]; sow dose 1.0 mg/kg IM) | Kidney: Prominent ectasia (number of piglets) ([1]; sow dose 1.0 mg/kg IM) | Kidney: Moderate ectasia (number of piglets) ([1]; sow dose 1.5 mg/kg IM) | Kidney: Rare tubular ectasia (number of piglets) ([1]; sow dose 1.5 mg/kg IM) | Kidney: Within normal limits (number of piglets) ([1]; sow dose 1.5 mg/kg IM) | Kidney: Rare tubular ectasia (number of piglets) ([1]; sow dose 2.0 mg/kg IM) | Kidney: Focal interstitial nephritis (number of sows) ([2]; sows, 1.5 mg/kg IM)
9: Kidney: Mild tubular ectasia (number of piglets) ([1]; sow dose 1.0 mg/kg IM) | Kidney: Mild tubular ectasia (number of piglets) ([1]; sow dose 1.5 mg/kg IM) | Stomach: Within normal limits (number of piglets) ([1]; sow dose 2.0 mg/kg IM)
No macroscopic lesions were evident: macroscopic lesions on post-mortem examination ([2]; kidney, liver, stomach and small intestines, sows and piglets)
2: Stomach: Mild vasculitis, muscle layer (number of piglets) ([1]; sow dose 0.5 mg/kg IM) | Kidney: Within normal limits (number of piglets) ([1]; sow dose 1.0 mg/kg IM) | Stomach: Mild vasculitis, muscle layer (number of piglets) ([1]; sow dose 1.0 mg/kg IM) | Stomach: Mild gastritis (number of piglets) ([1]; sow dose 2.0 mg/kg IM) | Kidney: Focal interstitial nephritis (number of sows) ([2]; sows, 0.5 mg/kg IM) | Kidney: Mild tubular ectasia (number of sows) ([2]; sows, 1.0 mg/kg IM) | Kidney: Focal interstitial nephritis (number of sows) ([2]; sows, 2.0 mg/kg IM)
3: Kidney: Prominent ectasia (number of piglets) ([1]; sow dose 1.5 mg/kg IM) | Stomach: Mild vasculitis, muscle layer (number of piglets) ([1]; sow dose 1.5 mg/kg IM) | Stomach: Within normal limits (number of piglets) ([1]; sow dose 1.5 mg/kg IM) | Kidney: Prominent ectasia (number of piglets) ([1]; sow dose 2.0 mg/kg IM) | Kidney: Within normal limits (number of piglets) ([1]; sow dose 2.0 mg/kg IM) | Kidney: Within normal limits (number of sows) ([2]; sows, 1.5 mg/kg IM)
